Data published in ChEMBL document CHEMBL1201862, “PubChem BioAssay data set” (2004).
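1) Cells in 96-well plates. 2) Compound, 48 h, 5 concentrations. 3) Linear interpolation between surrounding doses. 4) Unreached endpoint = highest concentration. Abbreviation: GI50, concentration required for 50% inhibition of growth.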 Calls of active or inactive are those of the source. Rule as the data show it: active = GI50 up to about 1.1 µM and inactive = higher.

Columns and labels:
Experiment in all cases: inhibition of tumour cell growth, NCI panel, 48 h
786-0 = tested on: 786-0
A498 = tested on: A498
A549 = tested on: A549
ACHN = tested on: ACHN
BT-549 = tested on: BT-549
CAKI-1 = tested on: CAKI-1
CCRF-CEM = tested on: CCRF-CEM
COLO 205 = tested on: COLO 205
DU-145 = tested on: DU-145
EKVX = tested on: EKVX
HCC 2998 = tested on: HCC 2998
HCT-116 = tested on: HCT-116
HCT-15 = tested on: HCT-15
HL-60 = tested on: HL-60
HOP-62 = tested on: HOP-62
HOP-92 = tested on: HOP-92
HT-29 = tested on: HT-29
Hs-578T = tested on: Hs-578T
IGROV-1 = tested on: IGROV-1
K562 = tested on: K562
KM12 = tested on: KM12
LOX IMVI = tested on: LOX IMVI
M14 = tested on: M14
MCF7 = tested on: MCF7
MDA-MB-231 = tested on: MDA-MB-231
MDA-MB-435 = tested on: MDA-MB-435
MDA-N = tested on: MDA-N
MOLT-4 = tested on: MOLT-4
Malme-3M = tested on: Malme-3M
NCI-H226 = tested on: NCI-H226
NCI-H23 = tested on: NCI-H23
NCI-H460 = tested on: NCI-H460
NCI-H522 = tested on: NCI-H522
NCI/ADR-RES = tested on: NCI/ADR-RES
OVCAR-3 = tested on: OVCAR-3
OVCAR-4 = tested on: OVCAR-4
OVCAR-5 = tested on: OVCAR-5
OVCAR-8 = tested on: OVCAR-8
PC-3 = tested on: PC-3
RPMI-8226 = tested on: RPMI-8226
RXF 393 = tested on: RXF 393
SF-268 = tested on: SF-268
SF-295 = tested on: SF-295
SF-539 = tested on: SF-539
SK-MEL-28 = tested on: SK-MEL-28
SK-MEL-2 = tested on: SK-MEL-2
SK-MEL-5 = tested on: SK-MEL-5
SK-OV-3 = tested on: SK-OV-3
SN12C = tested on: SN12C
SNB-19 = tested on: SNB-19
SNB-75 = tested on: SNB-75
SW-620 = tested on: SW-620
T47D = tested on: T47D
TK-10 = tested on: TK-10
U-251 = tested on: U-251
UACC-257 = tested on: UACC-257
UACC-62 = tested on: UACC-62
UO-31 = tested on: UO-31

In the case of `CC[C@@H]1CC[C@@H]2[C@H](CC[C@]3(C)[C@@H](OC(C)=O)CC[C@@H]23)[C@H]1COC(C)=O`, the GI50 (786-0) is reported as 45.1 µM (inactive), the GI50 (A498) is reported as 26 µM (inactive) and the GI50 (A549) is reported as 22.1 µM (inactive). For the same compound, the GI50 (ACHN) was 53.8 µM (inactive), the GI50 (BT-549) was 32.1 µM (inactive) and the GI50 (CAKI-1) was 29 µM (inactive). For the same compound, the GI50 (CCRF-CEM) was 20 µM (inactive), the GI50 (COLO 205) was 19.1 µM (inactive) and the GI50 (DU-145) was > 100 µM (inactive). For the same compound, the GI50 (EKVX) was 31.6 µM (inactive), the GI50 (HCC 2998) was 13.4 µM (inactive) and the GI50 (HCT-116) was 16.5 µM (inactive). For the same compound, the GI50 (HCT-15) was 23.9 µM, the GI50 (HL-60) was 20.7 µM (inactive) and the GI50 (HOP-62) was 30.4 µM (inactive). The GI50 (HOP-92) was 29 µM (inactive), the GI50 (HT-29) was 18.2 µM (inactive) and the GI50 (Hs-578T) was 25.1 µM (inactive). The GI50 (IGROV-1) was 32.7 µM (inactive), the GI50 (K562) was 17.6 µM (inactive) and the GI50 (KM12) was 24.3 µM (inactive). For the same compound, the GI50 (LOX IMVI) was 17.4 µM (inactive), the GI50 (M14) was 25.4 µM (inactive) and the GI50 (MCF7) was 31.6 µM (inactive). The GI50 (MDA-MB-231) was 20 µM (inactive), the GI50 (MDA-MB-435) was 22.5 µM (inactive) and the GI50 (MDA-N) was 24.9 µM (inactive). The GI50 (MOLT-4) was 16 µM (inactive), the GI50 (Malme-3M) was 18.4 µM (inactive) and the GI50 (NCI-H226) was 23.1 µM (inactive). For the same compound, the GI50 (NCI-H23) was 27.2 µM (inactive), the GI50 (NCI-H460) was 19.9 µM (inactive) and the GI50 (NCI-H522) was 23.1 µM (inactive). The GI50 (NCI/ADR-RES) was 26.7 µM (inactive), the GI50 (OVCAR-3) was 17.4 µM (inactive) and the GI50 (OVCAR-4) was 22.5 µM (inactive). The GI50 (OVCAR-5) was 20.1 µM (inactive), the GI50 (OVCAR-8) was 23 µM (inactive) and the GI50 (PC-3) was 30.1 µM (inactive). The GI50 (RPMI-8226) was 25.6 µM (inactive), the GI50 (RXF 393) was 22.6 µM (inactive) and the GI50 (SF-268) was 21.6 µM (inactive). For the same compound, the GI50 (SF-295) was 25.2 µM (inactive), the GI50 (SF-539) was 24.4 µM (inactive) and the GI50 (SK-MEL-28) was 30.8 µM (inactive). For the same compound, the GI50 (SK-MEL-2) was 16.4 µM (inactive), the GI50 (SK-MEL-5) was 18.3 µM (inactive) and the GI50 (SK-OV-3) was 35.2 µM (inactive). The GI50 (SN12C) was 22.9 µM (inactive), the GI50 (SNB-19) was 36.9 µM (inactive) and the GI50 (SNB-75) was 40.6 µM (inactive). The GI50 (SW-620) was 31.8 µM (inactive), the GI50 (T47D) was 32.1 µM (inactive) and the GI50 (TK-10) was > 100 µM (inactive). The GI50 (U-251) was 19.5 µM (inactive), the GI50 (UACC-257) was 29.5 µM (inactive) and the GI50 (UACC-62) was 18.1 µM (inactive). For the same compound, the GI50 (UO-31) was > 100 µM (inactive).

In the case of `CC(C)(C)CC(C)(C)c1cc(O)c(O)c(CN2CCCCC2)c1`, the GI50 (786-0) is reported as 13.4 µM (inactive), the GI50 (A498) is reported as 14.3 µM (inactive) and the GI50 (A549) is reported as 17.1 µM (inactive). The GI50 (ACHN) was 12.9 µM (inactive), the GI50 (BT-549) was 15.1 µM (inactive) and the GI50 (CAKI-1) was 14.2 µM (inactive). The GI50 (COLO 205) was 12.7 µM (inactive), the GI50 (DU-145) was 14.5 µM (inactive) and the GI50 (EKVX) was 12.7 µM (inactive). For the same compound, the GI50 (HCC 2998) was 10.6 µM (inactive), the GI50 (HCT-116) was 15.3 µM (inactive) and the GI50 (HCT-15) was 4.01 µM. The GI50 (HL-60) was 13.3 µM (inactive), the GI50 (HOP-62) was 15.5 µM (inactive) and the GI50 (HOP-92) was 17.5 µM (inactive). The GI50 (HT-29) was 5.69 µM (inactive), the GI50 (Hs-578T) was 15.6 µM (inactive) and the GI50 (IGROV-1) was 17.5 µM (inactive). For the same compound, the GI50 (K562) was 4.25 µM (inactive), the GI50 (KM12) was 17.5 µM (inactive) and the GI50 (LOX IMVI) was 12 µM (inactive). The GI50 (M14) was 15.6 µM (inactive), the GI50 (MCF7) was 12.5 µM (inactive) and the GI50 (MDA-MB-231) was 17.7 µM (inactive). The GI50 (MDA-MB-435) was 16.9 µM (inactive), the GI50 (MDA-N) was 15.1 µM (inactive) and the GI50 (MOLT-4) was 4.35 µM (inactive). The GI50 (Malme-3M) was 12.8 µM (inactive), the GI50 (NCI-H226) was 16.7 µM (inactive) and the GI50 (NCI-H23) was 16.1 µM (inactive). The GI50 (NCI-H460) was 11.7 µM (inactive), the GI50 (NCI-H522) was 10.8 µM (inactive) and the GI50 (NCI/ADR-RES) was 5.09 µM (inactive). The GI50 (OVCAR-3) was 14.7 µM (inactive), the GI50 (OVCAR-4) was 19.2 µM (inactive) and the GI50 (OVCAR-5) was 17.4 µM (inactive). The GI50 (OVCAR-8) was 15.6 µM (inactive), the GI50 (PC-3) was 13.9 µM (inactive) and the GI50 (RPMI-8226) was 12.8 µM (inactive). For the same compound, the GI50 (RXF 393) was 12.8 µM (inactive), the GI50 (SF-268) was 12.6 µM (inactive) and the GI50 (SF-295) was 17.5 µM (inactive). For the same compound, the GI50 (SK-MEL-28) was 17.7 µM (inactive), the GI50 (SK-MEL-5) was 15.6 µM (inactive) and the GI50 (SK-OV-3) was 19.8 µM (inactive). The GI50 (SN12C) was 15.7 µM (inactive), the GI50 (SNB-19) was 15.3 µM (inactive) and the GI50 (SNB-75) was 17.7 µM (inactive). The GI50 (SW-620) was 13.2 µM (inactive), the GI50 (T47D) was 11.6 µM (inactive) and the GI50 (TK-10) was 16.1 µM (inactive). The GI50 (U-251) was 11.9 µM (inactive), the GI50 (UACC-257) was 13.3 µM (inactive) and the GI50 (UACC-62) was 16.3 µM (inactive). The GI50 (UO-31) was 13.3 µM (inactive).

In the case of `O=c1cc(N2CCOCC2)[nH]c(=O)n1-c1ccc(F)cc1`, the GI50 (786-0) is reported as > 100 µM (inactive), the GI50 (A498) is reported as > 100 µM (inactive) and the GI50 (ACHN) is reported as > 100 µM (inactive). The GI50 (BT-549) was > 100 µM (inactive), the GI50 (CAKI-1) was > 100 µM (inactive) and the GI50 (CCRF-CEM) was > 100 µM (inactive). For the same compound, the GI50 (COLO 205) was > 100 µM (inactive), the GI50 (DU-145) was > 100 µM (inactive) and the GI50 (EKVX) was > 100 µM (inactive). The GI50 (HCC 2998) was > 100 µM (inactive), the GI50 (HCT-116) was > 100 µM (inactive) and the GI50 (HCT-15) was greater than 100 µM. For the same compound, the GI50 (HL-60) was > 100 µM (inactive), the GI50 (HOP-62) was > 100 µM (inactive) and the GI50 (HT-29) was > 100 µM (inactive). For the same compound, the GI50 (Hs-578T) was > 100 µM (inactive), the GI50 (IGROV-1) was > 100 µM (inactive) and the GI50 (K562) was > 100 µM (inactive). The GI50 (KM12) was > 100 µM (inactive), the GI50 (LOX IMVI) was > 100 µM (inactive) and the GI50 (M14) was > 100 µM (inactive). The GI50 (MCF7) was > 100 µM (inactive), the GI50 (MDA-MB-231) was > 100 µM (inactive) and the GI50 (MDA-MB-435) was > 100 µM (inactive). The GI50 (MDA-N) was > 100 µM (inactive), the GI50 (MOLT-4) was > 100 µM (inactive) and the GI50 (Malme-3M) was > 100 µM (inactive). For the same compound, the GI50 (NCI-H226) was > 100 µM (inactive), the GI50 (NCI-H23) was > 100 µM (inactive) and the GI50 (NCI-H460) was > 100 µM (inactive). For the same compound, the GI50 (NCI-H522) was > 100 µM (inactive), the GI50 (NCI/ADR-RES) was > 100 µM (inactive) and the GI50 (OVCAR-3) was > 100 µM (inactive). The GI50 (OVCAR-4) was > 100 µM (inactive), the GI50 (OVCAR-5) was > 100 µM (inactive) and the GI50 (OVCAR-8) was > 100 µM (inactive). The GI50 (PC-3) was > 100 µM (inactive), the GI50 (RPMI-8226) was > 100 µM (inactive) and the GI50 (RXF 393) was > 100 µM (inactive). The GI50 (SF-268) was > 100 µM (inactive), the GI50 (SF-295) was > 100 µM (inactive) and the GI50 (SF-539) was > 100 µM (inactive). For the same compound, the GI50 (SK-MEL-28) was > 100 µM (inactive), the GI50 (SK-MEL-2) was > 100 µM (inactive) and the GI50 (SK-OV-3) was > 100 µM (inactive). For the same compound, the GI50 (SN12C) was > 100 µM (inactive), the GI50 (SNB-19) was > 100 µM (inactive) and the GI50 (SNB-75) was > 100 µM (inactive). For the same compound, the GI50 (SW-620) was > 100 µM (inactive), the GI50 (T47D) was > 100 µM (inactive) and the GI50 (TK-10) was > 100 µM (inactive). For the same compound, the GI50 (U-251) was > 100 µM (inactive), the GI50 (UACC-257) was > 100 µM (inactive) and the GI50 (UACC-62) was > 100 µM (inactive).
